Active and inactive are the calls of the source. The rule behind the calls is not given here.
Tests used:
[1] = tested on: RAW264.7; experiment: Antiinflammatory activity in mouse RAW264.7 cells assessed as inhibition of LPS-induced NO production at 3 to 30 ug/ml after 24 hrs by Griess reaction; assay type: functional
[2] = tested on: RAW264.7; experiment: Antiinflammatory activity in mouse RAW264.7 cells assessed as inhibition of LPS-induced NO production at 30 ug/ml after 24 hrs by Griess reaction; assay type: functional, cell-based
[3] = tested on: RAW264.7; experiment: Antiinflammatory activity in mouse RAW264.7 cells assessed as inhibition of LPS-induced iNOS expression after 18 hrs by Western blot analysis; assay type: functional, cell-based
[4] = tested on: RAW264.7; experiment: (§1) Cytotoxicity against mouse RAW264.7 cells assessed as cell viability at 3 to 30 ug/ml after 24 hrs by MTT assay; assay type: cell-based; conditions: raw264.7, 24 h
[5] = tested on: RAW264.7; experiment: Antiinflammatory activity in mouse RAW264.7 cells assessed as inhibition of LPS-induced COX2 expression at 3 to 30 ug/ml after 18 hrs by Western blot analysis; assay type: functional, cell-based
[6] = as §1; assay type: cell-based; conditions: RAW264.7 cells, read-out: Activity

Structure (SMILES)	inhibition [1]	inhibition [2]	also measured
COc1cc(CCCO)cc2cc(-c3ccc4c(c3)OCO4)oc12	inactive	–	–
COc1ccc(-c2cc3cc([C@@H](O)CCO)cc(OC)c3o2)cc1OC	–	inactive	inhibition [3]: Dose-dependent effect; Activity [4]: Non-toxic; inhibition [5]: Active
COc1cc([C@@H]2OCC3C(=O)OCC32)ccc1O (some centres undefined)	–	inactive	viability at 24 h [6]: 60%
COc1cc([C@H]2OC[C@H]3[C@@H]2CO[C@H]3c2ccc(O)c(OC)c2)ccc1O (stereo in doubt; 12)	inactive	–	–
COc1cc(C(O)CCO)cc2cc(-c3ccc4c(c3)OCO4)oc12 (centres undefined)	inactive	–	–
COc1cc(-c2oc3c(OC)cc(CCCO)cc3c2C=O)ccc1O	inactive	–	–
COc1cc([C@H]2OC[C@H]3[C@@H]2CO[C@@H]3c2cc(OC)c(O)c(OC)c2)cc(OC)c1O	inactive	–	–
COc1cc(C[C@H]2CO[C@H](c3ccc(O)c(OC)c3)[C@H]2CO)ccc1O	inactive	–	–
COc1ccc(-c2cc3cc(CCCO)cc(OC)c3o2)cc1OC	–	inactive	–
COc1cc([C@H]2OC[C@H]3[C@@H]2CO[C@H]3c2ccc(O)c(OC)c2)ccc1O (stereo in doubt; 11)	inactive	–	–

Source: ChEMBL document CHEMBL3632471, “Inhibitory effects of compounds from Styrax obassia on NO production” (Bioorg Med Chem Lett, 2015)
